Legend:
[1] = target: Adenosine A2a (ADORA2A) receptor (Homo sapiens (Human), UniProt P29274); assay: ADORA2A Receptor Binding Assay; details: radioligand binding, membrane stock
How it was run: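 Test compounds incubated with A2a receptor membranes and a ³H-labelled radioligand for 2 hours at room temperature, then filtered through PEI-presoaked GF/C plates and washed. Filter-bound ³H counted by scintillation; % inhibition calculated from background-subtracted signal relative to high control.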

[2] = target: Adenosine A2B (ADORA2B) receptor (Homo sapiens (Human), UniProt P29275); assay: ADORA2B Receptor Binding Assay; details: radioligand binding, membrane stock
How it was run: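 Radioligand competition binding on human A2B receptor membranes, 1 h at room temperature, then filtration through BSA-presoaked GF/C filters and ³H counting by scintillation. Inhibition expressed as % of high control after background subtraction.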

Adenosine A2B (ADORA2B) receptor, sequence (P29275 whole entry): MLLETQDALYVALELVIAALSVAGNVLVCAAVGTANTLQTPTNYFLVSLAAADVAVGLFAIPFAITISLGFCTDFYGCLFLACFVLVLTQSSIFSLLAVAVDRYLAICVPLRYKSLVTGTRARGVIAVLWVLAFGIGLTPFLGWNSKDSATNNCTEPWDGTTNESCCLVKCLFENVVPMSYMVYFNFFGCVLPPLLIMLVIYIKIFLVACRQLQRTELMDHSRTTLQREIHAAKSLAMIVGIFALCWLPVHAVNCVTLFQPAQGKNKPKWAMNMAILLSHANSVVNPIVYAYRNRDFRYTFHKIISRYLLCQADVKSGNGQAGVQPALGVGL
Adenosine A2a (ADORA2A) receptor, sequence (P29274 whole entry): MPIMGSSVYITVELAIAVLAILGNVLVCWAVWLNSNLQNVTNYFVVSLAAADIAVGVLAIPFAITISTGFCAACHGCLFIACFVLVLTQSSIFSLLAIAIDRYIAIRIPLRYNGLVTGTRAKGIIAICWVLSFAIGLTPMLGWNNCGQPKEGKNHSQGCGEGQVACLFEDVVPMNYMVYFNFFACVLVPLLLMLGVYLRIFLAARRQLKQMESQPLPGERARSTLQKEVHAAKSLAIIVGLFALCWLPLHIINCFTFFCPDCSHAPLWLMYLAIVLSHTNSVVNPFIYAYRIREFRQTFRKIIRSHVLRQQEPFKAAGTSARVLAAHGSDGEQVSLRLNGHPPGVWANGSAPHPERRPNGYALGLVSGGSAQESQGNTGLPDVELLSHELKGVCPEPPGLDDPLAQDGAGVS

SMILES | IC50 [1] | IC50 [2]
Cc1cn2cc(NC(=O)C(F)F)nc(-c3ccco3)c2n1 [Compound 221, 2,2-difluoro-N-[8-(furan-2-yl)-2-methylimidazo[1,2-a]pyrazin-6-yl]acetamide] | < 10 nM | 10 to 100 nM
Cc1nc2c3cc(C(C)(C)O)[nH]c3nc(-c3ccc(C)o3)n2n1 [Compound 134, 2-[4-methyl-7-(5-methylfuran-2-yl)-3,5,6,8,10-pentazatricyclo[7.3.0.0^2,6]dodeca-1(9),2,4,7,11-pentaen-11-yl]propan-2-ol] | < 10 nM | < 10 nM
Cc1ccc(-c2nc(N)c(Cl)n3cc(C)nc23)cc1 [Compound 214, 5-chloro-2-methyl-8-(4-methylphenyl)imidazo[1,2-a]pyrazin-6-amine] | 100 to 1000 nM | 100 to 1000 nM
Cc1ccc(-c2nc(NC(=O)C3CC3)cc3nc(C4CNC4)nn23)o1 [Compound 164, N-[2-(azetidin-3-yl)-5-(5-methylfuran-2-yl)-[1,2,4]triazolo[1,5-c]pyrimidin-7-yl]cyclopropanecarboxamide] | 10 to 100 nM | > 1000 nM
Cc1nc2c(-c3ccccc3C)nc(N)c(Cl)n2n1 [Compound 182, 5-chloro-2-methyl-8-(2-methylphenyl)-[1,2,4]triazolo[1,5-a]pyrazin-6-amine] | 100 to 1000 nM | 100 to 1000 nM
CC(C)c1cn2cc(NC(=O)C3CC3)nc(-c3ccco3)c2n1 [Compound 212, N-[8-(furan-2-yl)-2-propan-2-ylimidazo[1,2-a]pyrazin-6-yl]cyclopropanecarboxamide] | < 10 nM | 10 to 100 nM
Cc1nc2c(Cl)c(N(C)C)nc(-c3ccc(C)o3)n2n1 [Compound 24, 8-chloro-N,N,2-trimethyl-5-(5-methylfuran-2-yl)-[1,2,4]triazolo[1,5-c]pyrimidin-7-amine] | > 1000 nM | > 1000 nM
Cc1nc2c(Cl)c(N)nc(-c3ccc(Cl)cc3)n2n1 [Compound 77, 8-chloro-5-(4-chlorophenyl)-2-methyl-[1,2,4]triazolo[1,5-c]pyrimidin-7-amine] | 10 to 100 nM | 10 to 100 nM
Cc1cc2c(nc(-c3ccco3)n3nc(C(C)C)nc23)[nH]1 [Compound 81, 7-(furan-2-yl)-11-methyl-4-propan-2-yl-3,5,6,8,10-pentazatricyclo[7.3.0.0^2,6]dodeca-1(9),2,4,7,11-pentaene] | < 10 nM | 10 to 100 nM
Cc1nc2cc(NC(=O)C3CNC3)nc(-c3ccc(C)o3)n2n1 [Compound 14, N-[2-methyl-5-(5-methylfuran-2-yl)-[1,2,4]triazolo[1,5-c]pyrimidin-7-yl]azetidine-3-carboxamide] | < 10 nM | 10 to 100 nM
Cc1nc2cc(NC(=O)C3CC3)nc(-c3ccc(C)o3)n2n1 [Compound 2, N-(2-methyl-5-(5-methylfuran-2-yl)-[1,2,4]triazolo[1,5-c]pyrimidin-7-yl)cyclopropanecarboxamide] | < 10 nM | < 10 nM
CC(=O)c1cccc(-c2nc(NC(=O)C3CC3)cc3nc(C)nn23)c1 [Compound 96, N-[5-(3-acetylphenyl)-2-methyl-[1,2,4]triazolo[1,5-c]pyrimidin-7-yl]cyclopropanecarboxamide] | 100 to 1000 nM | 100 to 1000 nM
CC(C)c1nc2c(Cl)c(N)nc(-c3ccccc3)n2n1 [Compound 86, 8-chloro-5-phenyl-2-propan-2-yl-[1,2,4]triazolo[1,5-c]pyrimidin-7-amine] | < 10 nM | 10 to 100 nM
Cc1nc2c(-c3ccc(C)o3)nc(N)c(Cl)n2n1 [Compound 175, 5-chloro-2-methyl-8-(5-methylfuran-2-yl)-[1,2,4]triazolo[1,5-a]pyrazin-6-amine] | < 10 nM | < 10 nM
Cc1nc2cc(N)nc(-c3ccc(S(C)(=O)=O)cc3)n2n1 [Compound 106, 2-methyl-5-(4-methylsulfonylphenyl)-[1,2,4]triazolo[1,5-c]pyrimidin-7-amine] | > 1000 nM | > 1000 nM
CC(=O)Nc1cc2nc(C3CC3)nn2c(-c2ccc(C)o2)n1 [Compound 61, N-[2-cyclopropyl-5-(5-methylfuran-2-yl)-[1,2,4]triazolo[1,5-c]pyrimidin-7-yl]acetamide] | < 10 nM | 10 to 100 nM
CC(=O)Nc1cc2nc(CF)nn2c(-c2ccc(C)o2)n1 [Compound 127, N-[2-(fluoromethyl)-5-(5-methylfuran-2-yl)-[1,2,4]triazolo[1,5-c]pyrimidin-7-yl]acetamide] | < 10 nM | < 10 nM
Cc1nc2c(C)c(N)nc(-c3ccc(C)o3)n2n1 [Compound 22, 2,8-dimethyl-5-(5-methylfuran-2-yl)-[1,2,4]triazolo[1,5-c]pyrimidin-7-amine] | < 10 nM | 10 to 100 nM

Next, values leading:

IC50 [1] | IC50 [2] | SMILES
10 to 100 nM | 100 to 1000 nM | CC(C)c1cn2c(Cl)c(N)nc(-c3ccccc3)c2n1 [Compound 213, 5-chloro-8-phenyl-2-propan-2-ylimidazo[1,2-a]pyrazin-6-amine]
< 10 nM | < 10 nM | Cc1nc2c(-c3ccco3)nc(NC(=O)C3CC3)cn2n1 [Compound 180, N-[8-(furan-2-yl)-2-methyl-[1,2,4]triazolo[1,5-a]pyrazin-6-yl]cyclopropanecarboxamide]
< 10 nM | < 10 nM | CC(=O)Nc1cc2nc(C(C)C)nn2c(-c2ccc(C)o2)n1 [Compound 34, N-[5-(5-methylfuran-2-yl)-2-propan-2-yl-[1,2,4]triazolo[1,5-c]pyrimidin-7-yl]acetamide]
< 10 nM | 10 to 100 nM | Cc1ccc(-c2nc(NC(=O)C3CC3)cc3nc(C4CCC4)nn23)o1 [Compound 64, N-[2-cyclobutyl-5-(5-methylfuran-2-yl)-[1,2,4]triazolo[1,5-c]pyrimidin-7-yl]cyclopropanecarboxamide]
< 10 nM | < 10 nM | O=C(Nc1cc2nc(C(F)F)nn2c(-c2ccco2)n1)C1CC1 [Compound 148, N-[2-(difluoromethyl)-5-(furan-2-yl)-[1,2,4]triazolo[1,5-c]pyrimidin-7-yl]cyclopropanecarboxamide]
< 10 nM | 10 to 100 nM | Cc1cn2cc(NC(=O)C3CC3)nc(-c3ccc(C)o3)c2n1 [Compound 199, N-[2-methyl-8-(5-methylfuran-2-yl)imidazo[1,2-a]pyrazin-6-yl]cyclopropanecarboxamide]
100 to 1000 nM | 100 to 1000 nM | Cc1cn2c(Cl)c(N)nc(-c3ccc(F)cc3)c2n1 [Compound 202, 5-chloro-8-(4-fluorophenyl)-2-methylimidazo[1,2-a]pyrazin-6-amine]
10 to 100 nM | 100 to 1000 nM | CC(=O)c1cccc(-c2nc(N)c(Cl)c3nc(C)nn23)c1 [Compound 105, 1-[3-(7-amino-8-chloro-2-methyl-[1,2,4]triazolo[1,5-c]pyrimidin-5-yl)phenyl]ethanone]
< 10 nM | < 10 nM | Cc1ccc(-c2nc(NC(=O)C3CC3)cn3cc(C(F)(F)F)nc23)o1 [Compound 197, N-[8-(5-methylfuran-2-yl)-2-(trifluoromethyl)imidazo[1,2-a]pyrazin-6-yl]cyclopropanecarboxamide]
> 1000 nM | > 1000 nM | CC(=O)Nc1cc2nc(C)nn2c(-c2ccc(S(C)(=O)=O)cc2)n1 [Compound 101, N-[2-methyl-5-(4-methylsulfonylphenyl)-[1,2,4]triazolo[1,5-c]pyrimidin-7-yl]acetamide]
